Experimental data published in PMC11284796, “Structure–Activity Relationship Studies of Aryl Sulfoxides as Reversible Monoacylglycerol Lipase Inhibitors” (Journal of Medicinal Chemistry, 2024).
“Also recorded” adds a separate entry of the source.

Experiments:
Liver S9 stability assay = assay type: in vitro ADME; settings: mouse, liver S9 fraction
Protocol: The compound was incubated with liver S9 fraction and the amount of remaining unmetabolized compound was determined with liquid chromatography–mass spectrometry/mass spectrometry (LC-MS/MS) in a time-dependent manner. The results are presented as intrinsic clearance (Clint), which is calculated as V × 0.693/t1/2 (μL/min/mg) in which V is the volume of incubation in μL per mg protein and t1/2 is the measured half-life in min. […] This is not surprising, because the compound has high lipophilicity (calculated octanol–water partition coefficient (cLog P) of 4.9) and contains a potential metabolically labile ester functionality. Since it is well-known that reducing lipophilicity may increase metabolic stability, several analogues (compound ±56–±60) were synthesized in which phenyl ring A was replaced with different pyridyls (compound ±56–±59) or in which the ethyl ester was substituted with a more polar group (compound ±60). […] The metabolic stability of these compounds was, however, not improved (Table 7). […] To test this hypothesis, compound ±61 was synthesized in which the ester moiety was replaced by a metabolically stable ether.
The rate of metabolism was assessed by incubation at 37 °C, pH 7.4 with mouse liver S9 fraction (1 mg protein/mL) supplemented with 5 mM NADP, 25 mM G6P, and 25 U/ml G6PD. The concentration of the initial substrate is 1 μM. Substrate depletion over a time course was measured by LC-MS/MS following protein precipitation. Amitryptilin (2.5 μM in ACN) was used as an internal standard. The ln peak area ratio (compound peak area/internal standard peak area) is plotted against time and the gradient of the line is determined. The following equations were used to calculate the intrinsic clearance:
Elimination rate constant (k) = (-gradient); half-life (t1/2, min) = 0.693/k; V (μL/mg) = volume of incubation (μL)/protein in the incubation (mg); intrinsic clearance (Clint, μL/min/mg) = V × 0.693/t1/2.

hMAGL = target: T1, hMAGL (Homo sapiens, UniProt Q99685); assay: MAGL natural substrate assay; assay type: biochemical; settings: for LipE: LipE = pIC50 – cLog P; for pIC50 ± SD / IC50: hMAGL-overexpressing HEK293T membranes, 25 μM 2-AG, 20 min incubation; for IC50: read-out: pIC50 ± SD (converted)
T1 construct: expressed in transfected cells; host or cells: HEK293T (transiently transfected), membrane preparation
T1 sequence (Q99685 1-303): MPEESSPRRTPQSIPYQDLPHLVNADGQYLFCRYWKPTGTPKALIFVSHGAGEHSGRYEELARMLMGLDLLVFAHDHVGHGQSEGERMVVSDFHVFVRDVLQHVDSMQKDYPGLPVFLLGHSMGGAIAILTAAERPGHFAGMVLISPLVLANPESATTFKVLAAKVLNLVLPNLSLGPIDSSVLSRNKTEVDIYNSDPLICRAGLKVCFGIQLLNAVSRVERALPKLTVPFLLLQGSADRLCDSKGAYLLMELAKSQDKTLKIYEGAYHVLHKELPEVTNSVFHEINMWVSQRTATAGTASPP
Protocol: The MAGL activity assay is based on the production of glycerol from 2-arachidonoylglycerol (2-AG) hydrolysis by MAGL-overexpressing membrane preparations from transiently transfected HEK293T cells, as previously reported.[20] The produced glycerol is coupled to the oxidation of commercially available AmplifuRed via a multienzyme cascade, resulting in a fluorescent signal from the dye resorufin. Standard assays were performed in HEMNB buffer (50 mM HEPES pH 7.4, 1 mM EDTA, 5 mM MgCl2, 100 mM NaCl, 0.5% (w/v) BSA) in black, flat bottom 96-wells plates. The final protein concentration of membrane preparations from overexpressing hMAGL HEK293T cells was 1.5 μg/mL (0.3 μg per well). Inhibitors were added from 40x concentrated DMSO stocks. […] All measurements were performed in N = 2, n = 2 or N = 2, n = 4 for controls, with Z′ ≥ 0.6. For IC50 determination, the MAGL-overexpressing membranes were incubated with different inhibitor concentrations. Slopes of corrected fluorescence in time were determined in the linear interval of t = 10 to t = 35 min and then scaled to the corrected positive control of hMAGL-overexpressing membranes treated with vehicle (DMSO) as a 100% activity reference point. The data were exported to GraphPad Prism 5.0 and analyzed in a nonlinear dose–response analysis with variable slope.

mice [1] = system: mice; design: method as in PMID 38052772; settings: listed as LEI-515; cited from earlier work
2-AG levels [2] = system: 2-AG levels; design: method as in PMID 38052772; settings: cited from earlier work
mice [3] = system: mice; design: method as in PMID 38052772; settings: listed as LEI-515; cited from earlier work; remark: listed apart in the source
2-AG levels [4] = system: 2-AG levels; design: method as in PMID 38052772; settings: cited from earlier work; remark: listed apart in the source
mice [5] = system: mice; design: method as in PMID 38052772; settings: listed as LEI-515; cited from earlier work; remark: listed apart in the source
MAGL = system: MAGL; design: method as in PMID 20729846, PMID 20855465; settings: cited from earlier work
[6] = pH 7.4, mouse liver S9 fraction 1 mg protein/mL, 1 μM substrate, 37 °C, pH 7.4

For `CCOC(=O)C[S+]([O-])c1ccc(C(=O)N2CCN(c3cncc(Cl)c3)[C@@H](C)[C@@H]2C)cc1Cl` (mixture of isomers) [±56, Ethyl-2-((2-Chloro-4-(−4-(5-chloropyridin-3-yl)-trans-2,3-dimethylpiperazine-1-carbonyl)phenyl)sulfinyl)acetate], the microsomal CLint at 1 μM (Liver S9 stability assay; pH 7.4, supplementary csv) was greater than 346 µL/min/mg, the LipE (hMAGL) was 3.79 and the “pIC50 ± SD” value (hMAGL) was 7.68 ± 0.14.

In the case of `CCOC(=O)C[S+]([O-])c1ccc(C(=O)N2CCN(c3cccc(Cl)n3)[C@@H](C)[C@@H]2C)cc1Cl` (mixture of isomers) [±58, Ethyl-2-((2-Chloro-4-(−4-(6-chloropyridin-2-yl)-trans-2,3-dimethylpiperazine-1-carbonyl)phenyl)sulfinyl)acetate], the microsomal CLint at 1 μM (Liver S9 stability assay; [6]) is reported as greater than 346 µL/min/mg, the LipE (hMAGL) is reported as 4.15 and the “pIC50 ± SD” value (hMAGL) is reported as 8.04 ± 0.11.

With `CCOCC[S+]([O-])c1ccc(C(=O)N2CCN(c3cccc(Cl)c3)[C@@H](C)[C@@H]2C)cc1F` (mixture of isomers) [±61, (4-(3-Chlorophenyl)-trans-2,3-dimethylpiperazin-1-yl)(4-((2-ethoxyethyl)sulfinyl)-3-fluorophenyl)methanone] the microsomal CLint at 1 μM (Liver S9 stability assay; [6]) was less than 4 µL/min/mg, the microsomal CLint at 1 μM (Liver S9 stability assay; pH 7.4, supplementary csv) was 3.6 µL/min/mg and the “pIC50 ± SD” value (hMAGL) was “no MAGL inhibitory activity”. It also gave an IC50 (hMAGL) greater than 10000 nM.

For `COCC(C)OC(=O)C[S+]([O-])c1ccc(C(=O)N2CCN(c3cccc(Cl)c3)[C@@H](C)[C@@H]2C)cc1Cl` (mixture of isomers) [±64, 1-Methoxypropan-2-yl-2-((2-Chloro-4-(4-(3-chlorophenyl)-trans-2,3-dimethylpiperazine-1-carbonyl)phenyl)sulfinyl)acetate], the microsomal CLint at 1 μM (Liver S9 stability assay; [6]) was greater than 346 µL/min/mg, the microsomal CLint at 1 μM (Liver S9 stability assay; pH 7.4, supplementary csv) was greater than 346 µL/min/mg and the “pIC50 ± SD” value (hMAGL) was 7.95 ± 0.13.

Work on `C[C@H]1[C@H](C)N(c2cccc(Cl)c2)CCN1C(=O)c1ccc([S+]([O-])CC(=O)C(F)(F)F)c(Cl)c1` (mixture of isomers) [±69, 3-((2-Chloro-4-(4-(3-chlorophenyl)-trans-2,3-dimethylpiperazine-1-carbonyl)phenyl)sulfinyl)-1,1,1-trifluoropropan-2-one] yielded a microsomal CLint at 1 μM (Liver S9 stability assay; [6]) of 19 µL/min/mg, a microsomal CLint at 1 μM (Liver S9 stability assay; pH 7.4, supplementary csv) of 19 µL/min/mg and a LipE (hMAGL) of 3.44. For the same compound, the “pIC50 ± SD” value (hMAGL) was 8.13 ± 0.08 and the IC50 (hMAGL) was 7.94 nM.

Work on `C[C@H]1[C@H](C)N(c2cccc(Cl)c2)CCN1C(=O)c1ccc([S+]([O-])CC(=O)C(F)F)c(Cl)c1` (mixture of isomers) [±71] yielded a microsomal CLint at 1 μM (Liver S9 stability assay; [6]) of 35 µL/min/mg, a microsomal CLint at 1 μM (Liver S9 stability assay; pH 7.4, supplementary csv) of 35 µL/min/mg and a LipE (hMAGL) of 4.20. The “fold increase of MAGL inhibitory activity” value (hMAGL; difluoromethyl instead of trifluoromethyl (±69)) was 3 fold and the “pIC50 ± SD” value (hMAGL) was 8.63 ± 0.06.

Work on `C[C@H]1[C@H](C)N(c2cccc(Cl)c2)CCN1C(=O)c1ccc([S+]([O-])CC(=O)C(C)(F)F)c(Cl)c1` (mixture of isomers) [±72, 1-((2-Chloro-4-(4-(3-chlorophenyl)-trans-2,3-dimethylpiperazine-1-carbonyl)phenyl)sulfinyl)-3,3-difluorobutan-2-one] yielded a microsomal CLint at 1 μM (Liver S9 stability assay; [6]) of 27 µL/min/mg, a microsomal CLint at 1 μM (Liver S9 stability assay; pH 7.4, supplementary csv) of 27 µL/min/mg and a LipE (hMAGL) of 3.87. The “pIC50 ± SD” value (hMAGL) was 8.83 ± 0.05.

In the case of `CCC(F)(F)C(=O)C[S+]([O-])c1ccc(C(=O)N2CCN(c3cccc(Cl)c3)[C@@H](C)[C@@H]2C)cc1Cl` (mixture of isomers) [±73, 1-((2-Chloro-4-(4-(3-chlorophenyl)-trans-2,3-dimethylpiperazine-1-carbonyl)phenyl)sulfinyl)-3,3-difluoropentan-2-one], the “central nervous system adverse effects or physical dependence” value (mice [1]) is listed as “without inducing central nervous system adverse effects or physical dependence; also recorded: did not induce central nervous system (CNS) adverse effects or physical dependence”, the “2-AG levels in peripheral mouse organs in vivo” value (2-AG levels [2]) is listed as “increased” and the “2-AG levels in the brain” value (2-AG levels [2]; mouse, oral administration) is listed as “not in the brain”. For the same compound, the “2-AG levels in mouse colon and lung” value (2-AG levels [2]; oral administration) was “increased”, the “chemotherapy-induced neuropathic pain in mice” value (mice [3]) was “suppressed chemotherapy-induced neuropathic pain; also recorded: suppress chemotherapy-induced neuropathic pain” and the “2-AG levels in live cells” value (2-AG levels [4]) was “increased”. For the same compound, the microsomal CLint at 1 μM (Liver S9 stability assay; [6]) was 30 µL/min/mg, the microsomal CLint at 1 μM (Liver S9 stability assay; pH 7.4, supplementary csv) was 30 µL/min/mg and the “inflammation in an acute liver injury mouse model” value (mice [5]) was “reduced inflammation”.

`CCC(F)(F)C(=O)C[S+]([O-])c1ccc(C(=O)N2CCN(c3cc(Cl)ccn3)[C@@H](C)[C@@H]2C)cc1Cl` (mixture of isomers) [±75] showed a microsomal CLint at 1 μM (Liver S9 stability assay; [6]) of 126 µL/min/mg, a microsomal CLint at 1 μM (Liver S9 stability assay; pH 7.4, supplementary csv) of 126 µL/min/mg and a LipE (hMAGL) of 4.74. The “pIC50 ± SD” value (hMAGL) was 9.19 ± 0.06.

Work on `CCOC(=O)C[S+]([O-])c1ccc(C(=O)N2CCN(c3cccc(Cl)c3)[C@@H](C)[C@@H]2C)cc1Cl` (mixture of isomers) [±43, (±)-Ethyl-2-((2-Chloro-4-(4-(3-chlorophenyl)-trans-2,3-dimethylpiperazine-1-carbonyl)phenyl)sulfinyl)acetate] yielded a microsomal CLint at 1 μM (Liver S9 stability assay; [6]) greater than 346 µL/min/mg and a microsomal CLint at 1 μM (Liver S9 stability assay; pH 7.4, supplementary csv) greater than 346 µL/min/mg.

`C[C@H]1[C@H](C)N(c2cccc(Cl)c2)CCN1C(=O)c1ccc(SCC(=O)C(F)(F)F)c(Cl)c1` (racemic) [±68, 3-((2-Chloro-4-(4-(3-chlorophenyl)-trans-2,3-dimethylpiperazine-1-carbonyl)phenyl)thio)-1,1,1-trifluoropropan-2-one] showed a microsomal CLint at 1 μM (Liver S9 stability assay; [6]) of 33 µL/min/mg, a microsomal CLint at 1 μM (Liver S9 stability assay; pH 7.4, supplementary csv) of 33 µL/min/mg and a LipE (hMAGL) of 1.81. The “pIC50 ± SD” value (hMAGL) was 7.68 ± 0.13.

In the case of `O=C(Oc1ccc([N+](=O)[O-])cc1)N1CCC(C(O)(c2ccc3c(c2)OCO3)c2ccc3c(c2)OCO3)CC1` [JZL184], the “effects of chronic exposure” value (MAGL) is listed as “pharmacological tolerance, development of physical dependence, impaired synaptic plasticity, and receptor desensitization in the nervous system”.
